# Measurements reported in patent US20060122153A1, “Antineoplastic ether lipid compounds with modifications at the sn-2 carbon” (priority 2003, published 2006).
# Where “and” joins values, the source holds several entries; their conditions need not be identical. Identical values can stand only once. Entries after “also recorded” stand apart in the source; their conditions may differ. Like-named read-outs stand apart in the source and are kept apart here.
# Experiments:
# [1] = system: platelets in dog whole blood; experiment: Platelet aggregation in whole blood (Chronolog whole blood aggregometer)
# Method: (§5) Briefly, whole citrated blood is diluted 1:2 with sterile saline and placed in a warm chamber with a mini stir bar. An electronic probe, measuring electrical resistance, is inserted in the sample. The aggregometer is calibrated and the baseline is observed to detect any spontaneous aggregation. The test sample is added and allowed to run for at least 6 minutes. If the sample is an agonist the platelets will start to aggregate and stick to the electronic probe causing resistance across the electrodes to increase. This resistance, in ohms, is measured 6 minutes post addition of sample. The test samples are run at 25, 100, 200, 400 and 800 uM and compared to 100 uM L-ET-18-OCH3.
# (§6) Collection of Blood Sample for in vitro Platelet Aggregation Testing: Venous blood is collected in 4.5 mL Vacutainer tubes containing 0.129 M sodium citrate using a 21G needle or larger. Blood is immediately mixed by gentle inversion 15-20 times and kept at room temperature. Dilution ratio is 1 to 9 (3.8% citrate solution:blood). One (2.0 mL) Vacutainer tube containing EDTA is also collected for platelet counts. Complete blood counts (CBC) are measured on the CDC Technologies Hemavet 1500 to ensure that the test subject's platelets are within normal range. Amy vials of hemolytic blood or blood containing any clots should be discarded. Platelet aggregation testing must be completed within 3 hours of blood collection. After this time the ability of platelets to aggregate decreases.
# (§7) Dilutions were prepared in PBS or saline at 40× concentration. (25 uL test sample are added to 1000 uL diluted blood (1:40)).
# whole human blood = experiment: Hemolysis assay with whole human blood
# Method: Venous blood was collected in 10 mL Vacutainer tubes containing EDTA using a 21G needle or larger.
# Stock solutions of 20 mM test sample in phosphate buffered saline (PBS) were prepared as follows:
# Then 270 uL of whole blood was aliquotted in duplicate mini test tubes using positive displacement pipet. Next, 30 uL of each working stock solution, in duplicate, was added to the whole blood. Next, 30 uL of PBS was added for background control. The samples were capped or sealed with Parafilm and gently mixed. The blood was incubated at 37° C. in gentle rotating water bath for 30 minutes. Final concentration of test sample was 10% of working stock solution.
# Total hemolysis samples of 1,% and 10% whole blood samples in deionized water were prepared as follows:
# The samples were freeze thawed 3× in liquid nitrogen then wafer bath. The samples were then centrifuged 10 minutes at 1500 RPM. Next, 100 uL of supernatant was transferred to a cuvette and 1 mL deionized water was added. The absorbance was read at 550 nm vs. water blank.
# H10 and H50 were calculated by graphing Percent Total Hemolysis vs. Test Sample Concentration. The Percent Total Henolysis=(average o.d of test sample)/(average o.d. of total hemolysis sample)×100
# U937 = experiment: In vitro growth inhibition (GI50), cell growth assay; type: cell-based, human; conditions: U937 tumor cell line, 3 days
# Method: After 3 days of incubation, cell growth was determined.
# To determine the Growth Inhibition in the suspension cell lines, cell numbers were directly counted instead of using the SRB assay which determines the total cell protein. One day prior to the drug treatment, 40,000 cells per well were seeded into 24-well plates in a volume of 0.5 mL. Stock solutions were diluted with complete medium to twice the desired final concentrations, and then 0.5 mL aliquots of each dilution were added to the designated wells. After 3 days incubation, cell growth was determined by counting cell number using a coulter counter (Z-M, coulter). Cell counts were-also taken at time 0 and subtracted from the test results to give net growth.
# A549 = experiment: In vitro growth inhibition (GI50), SRB assay; type: cell-based, human; conditions: A549 tumor cell line, 3 days
# Excerpt: (§1) The following cell lines were selected from the cell bank for screening and GI50 studies: MCF-7: human breast tumor, MCF-7/ADR: MCF-7 adriamycin resistant subline, HT-29: human colon carcinoma, A-549: human non-small cell lung cancer, NIH-3T3: mouse Swiss embryo fibroblast and WI-38: human lung fibroblast, SKMEL-28: human melanoma, Lewis Lung: mouse lung carcinoma, DU-145: prostate carcinoma, B16F10: mouse melanoma, L1210: murine lymphocytic leukemia, P-388: murine leukemia, U-937: human histolytic lymphoma. Except HT-29, WI-38, NIH-3T3 and Lewis Lung which were obtained from the American Type Culture Collection (Rockville, Md.) all the other cell lines were obtained from National Cancer Institute—Frederick Research Facility (Frederick, Md.). All the cell lines were grown in RPMI-1640 medium containing 10% fetal bovine serum (FBS) except WI-38 and DU-145 which were grown in EMEM+10% FBS at 37° C., 5% CO2 and 100% humidity and NIH-3T3, Lewis Lung, B16F10 and L1210 which were grown in DMEM containing 10% FBS (10% HS for L1210). All the adherent cell lines were detached from the culture flasks by addition of 2-3 ml of 0.05% trypsin-EDTA. Thereafter, trypsin was inactivated by addition of 10 mL of 10% serum-containing RPMI-1640 medium. Cells were separated into a single-cell suspension by gentle pipetting action. Depending on the cell type, 3,6000 to 10,000 cells were plated onto 96-well plates a day prior to the drug treatment, in a volume of 100 μl per well.
# (§2) The test compounds were made in-house and the compounds were dissolved PBS or saline at a stock concentration of approximately 20 mM, which is 400 times the desired final maximum test concentration. The stock solutions were then diluted with complete medium to twice the desired final concentration. 100 μl aliquots of each dilution was then added to the designated wells. After 3 days of incubation, cell growth was determined.
# (§3) The SRB assay was performed as described by Monks, A., Scudiero, D., Skehan, P., Shoemaker, R., Paull, K., Vistica, D., Hose, C., Langley, J., Cronise, P., and Vaigro-Wolff, A. Feasibility of a high-flux anticancer drug screen using a diverse panel of cultured human tumo-r cell lines. J Natl Cancer Inst, 83: 757-766, 1991 with minor modifications. Following drug treatment, cells were fixed with 50 μl of cold 50% (wt/vol) trichloroacetic acid (TCA) for 60 minutes at 4° C. The supernatant was discarded, and the plates were washed six times with deionized water and then air dried. The precipitate was stained with 100 μl SRB solution (0.4% wt/vol in 1% acetic acid) for 10 minutes at room temperature, and free SRB was removed by washing three times with 1% acetic acid, and the plates were then air dried. Bound SRB was solubilized with Tris buffer (10 mM), and the ODs were read using an automated plate reader (Bio-Rad, Model 3550-UV) at 490 nm. Background values were subtracted from the test data, and the data was calculated as a % of control. […] Percentage growth was calculated as described by, Peters, A. C., Ahmad, I., Janoff, A. S., Pushkareva, M. Y., and Mayhew, E. Growth Inhibitory effects of liposome-associated 1-o-octadecyl-2-o-methyl-sn-glycero-3-phosphocholine. Lipids, 32:1045-1054, 1997. The raw optical density data Was imported into an Excel spreadsheet to determine dose responses. […] By varying drug concentration,-dose response curves were generated and the GI-50 values were calculated. The GI50 values for each experiment were calculated using data obtained from three duplicate wells on two separate plates.
# (§4) For growth inhibitory evaluation, we used five human tumor cell lines (U937; HT29; A549; MCF7; MCF7/ADR) and two normal fibroblast cell lines (NIH-3T3, murine; WI-38, human).
# HT29 = experiment: In vitro growth inhibition (GI50), SRB assay; type: cell-based, human; conditions: HT29 tumor cell line, 3 days
# Excerpt: as §1, §2, §3, §4
# MCF7/ADR = experiment: In vitro growth inhibition (GI50), SRB assay; type: cell-based, human; conditions: MCF7/ADR tumor cell line, 3 days
# Excerpt: as §1, §2, §3, §4
# MCF7 = experiment: In vitro growth inhibition (GI50), SRB assay; type: cell-based, human; conditions: MCF7 tumor cell line, 3 days
# Excerpt: as §1, §2, §3, §4
# NIH-3T3 = experiment: In vitro growth inhibition (GI50), SRB assay, normal fibroblast; type: cell-based, mouse; conditions: NIH-3T3 normal murine fibroblast cell line, 3 days
# Excerpt: as §1, with “All the adherent cell lines were detached from the culture flasks by addition of 2-3 ml of 0.05% trypsin-EDTA. Thereafter, trypsin was inactivated by addition of 10 mL of 10% serum-containing RPMI-1640 medium. Cells were separated into a single-cell suspension by gentle pipetting action. Depending on the cell type, 3,6000 to 10,000 cells were plated onto 96-well plates a day prior to the drug treatment, in a volume of 100 μl per well.” left out
# The test compounds were made in-house and the compounds were dissolved PBS or saline at a stock concentration of approximately 20 mM, which is 400 times the desired final maximum test concentration. […] After 3 days of incubation, cell growth was determined.
# The SRB assay was performed as described by Monks, A., Scudiero, D., Skehan, P., Shoemaker, R., Paull, K., Vistica, D., Hose, C., Langley, J., Cronise, P., and Vaigro-Wolff, A. Feasibility of a high-flux anticancer drug screen using a diverse panel of cultured human tumo-r cell lines. […] Bound SRB was solubilized with Tris buffer (10 mM), and the ODs were read using an automated plate reader (Bio-Rad, Model 3550-UV) at 490 nm. Background values were subtracted from the test data, and the data was calculated as a % of control. […] Percentage growth was calculated as described by, Peters, A. C., Ahmad, I., Janoff, A. S., Pushkareva, M. Y., and Mayhew, E. Growth Inhibitory effects of liposome-associated 1-o-octadecyl-2-o-methyl-sn-glycero-3-phosphocholine. […]
# WI38 = WI38 normal human fibroblast cell line, 3 days
# Excerpt: as §1, §2, §3, §4
# [2] = system: DEVDase activity (Caspase 3) in Jurkat T cells; experiment: DEVDase activity in Jurkat T cells; type: cell-based; conditions: Jurkat T cells, 6 hours
# Method: Suspension cells were seeded at density 3.2×10^5 cells per mL in RPMI-1640 medium (Bio-Whittaker) supplemented with 10% heat inactivated FBS (Bio-Whittaker). Cells were pre-incubated overnight prior to treatment with the ether lipid compounds of the invention. At treatment time cell density was 5×10^5 cells per mL. Cells were incubated with the ether lipid compounds of the invention for various periods of time, usually 6 hours. Cells were collected, washed with 1×DPBS and resuspended in 110 μl of Buffer A (10 mM BEPES-KOH, pH 7.4, 2 mM EDTA, 0.1% CHAPS, 5 mM DTT, 1:100 dilution of protease inhibitors cocktail (Sigma)-DTT and protease inhibitors should be added just before use). After 10 min incubation on ice in order to lyse cells, samples were frozen on dry ice/ethanol and kept at −20° C. until analysis.
# At the time of analysis of DEVDase activity frozen pellets were kept on ice until thawed and after vigorous vortexing samples were centrifuged at 14,000 rpm for 6 min.; Supernatant was transferred into another tube and 2 μl, in triplicates, were used for protein measurement using Bradford reagent (Bio-Rad).
# Measurement of DEVDase activity was carried out in 100 μl volume, where 10 μg of protein was delivered in 50 μl of Buffer A and 40 μM of substrate Ac-DEVD-AMC was also delivered in 50 μl of Buffer A. All measurements were done in triplicates. Reaction was carried out for 1 hour and generation of fluorescent product of reaction (aminomethylcoumarin) was measured by reading fluorescence at 1em 460 nm (1ex 360 nm). Changes in DEVDase activity were calculated after subtraction of background fluorescence of substrate incubated without proteins, and were expressed as percent of control (DEVDase activity in untreated cells). Average of DEVDase activity, calculated from few independent experiments, was used to calculate percent of L-ether lipid-induced DEVDase activity.
# [3] = system: platelets in dog whole blood
# Method: as §5, §6, §7
Relative Platelet Aggregation (Ohms) ([1]; 25 μM),Relative Platelet Aggregation (Ohms) ([1]; 100 μM),Relative Platelet Aggregation (Ohms) ([1]; 400 μM),Relative Platelet Aggregation (Ohms) ([1]; 800 μM),Structure (SMILES),platelet aggregation response (in words) [1],H50 (whole human blood),GI50 (U937) [µM],GI50 (A549) [µM],GI50 (HT29),GI50 (MCF7/ADR) [µM],GI50 (MCF7) [µM],GI50 (NIH-3T3) [µM],GI50 (WI38) [µM],"% L-ET18OCH3 (DEVDase, 6 hrs) ([2]; 10 μM ether lipid) [%]","% L-ET18OCH3 (DEVDase, 6 hrs) ([2]; 20 μM ether lipid) [%]","% L-ET18OCH3 (DEVDase, 6 hrs) ([2]; 30 μM ether lipid) [%]",Platelet aggregation [3],platelet aggregation response (in words) [3]
8,16,10,0,CCCCCCCCCCCCCCCCCCOC[C@@H](N)COP(=O)([O-])OCC[N+](C)(C)C [9(R)],clear platelet aggregation response; also recorded: elicited a platelet aggregation response,–,–,–,–,–,–,–,–,–,–,–,–,–
–,–,–,–,"CCCCCCCCCCCCCCCCCCOCC(COP(=O)([O-])OCC[N+](C)(C)C)OC [L-ET18OCH3, 1-O-octadecyl-2-O-methyl-glycerophosphocholine, reference compound]",–,"2000, >2000 μM",1 to 1.5,6.5 to 9.1,5.5 µM and 6 µM,≥ 25.7,9.7 to 18.6,46.6,10 to 12.8,100 ± 8.8,100 ± 10.4,100 ± 9.3,+++,elicits a platelet-aggregation response
